≈ marks a conversion by molar mass, not a printed value.
Assays:
C. neoformans ATCC 66031 = assay: MIC microdilution susceptibility testing, C. neoformans in SDB; format: cell-based, Cryptococcus neoformans; conditions: SDB medium, 35-37° C., 24-48 h, average of three experiments; for MIC: Cryptococcus neoformans, ATCC66031
Protocol: (§1) Microorganisnis. […] Stock cultures were kept on Sabouraud dextrose agar (SDA; Becton-Dickinson and Co., Sparks, Md.). Subcultures were prepared on SDA at 35-37° C. Suspension cultures were prepared by inoculation of single colonies in 7 ml of normal saline solution.
(§2) Test compounds were dissolved in DMSO (0.56 mg/ml) and stored at 0° C. Working dilutions were made in RPMI or SDB medium. […] The final maximum concentration of DMSO in the assays was 5% (v/v).
(§3) Microdilutions for control experiments with C. albicans, A. niger, and C. neoformans were the modified method of National Committee for Clinical Laboratory Standards (NCCLS) method as described by Galgiani and by the more recent NCCLS M27-A microdilution methods as described previously. Galgiani, J. N. Antimicrob. Agents Chemother. […] Reference method for broth dilution antifungal susceptibility testing for yeasts. Approval standard. […] 9; C. arballeira, N. M., et al. Arch. Pharm.-Pharm. […] Dilutions were prepared in 0.1 ml of RPMI or SDB; the inocula were either 10^4 C. albicans or C. neoformans cells or A. niger spores. The tubes were incubated for 24-48 h at 36±1° C., and turbidity was read visually.

C. albicans ATCC 14053 [1] = assay: MIC microdilution susceptibility testing, C. albicans in SDB; format: cell-based, Candida albicans; conditions: 24-48 h, average of three experiments; for MIC: Candida albicans
Protocol: as §1, §2, §3

A. niger ATCC 16404 = assay: MIC microdilution susceptibility testing, A. niger in SDB; format: cell-based, Aspergillus niger; conditions: SDB medium, 35-37° C., 24-48 h, average of three experiments; for MIC: Aspergillus niger, ATCC16404
Protocol: as §1, §2, §3

C. albicans ATCC 14053 [2] = assay: MIC microdilution susceptibility testing, C. albicans in RPMI; format: cell-based, Candida albicans; conditions: for MIC: Candida albicans
Protocol: as §1, §2, §3

[3] = RPMI medium pH 6.9, 35-37° C., 24-48 h, average of three experiments
[4] = ATCC14053, pH 5.6, SDB medium pH 5.6, 35-37° C.
[5] = ATCC14053, RPMI medium pH 6.9, 35-37° C., 24-48 h, average of three experiments, read-out: MIC C. albicans ATCC 14053, RPMI

MIC (C. neoformans ATCC 66031) [µg/mL]	MIC (C. albicans ATCC 14053 [1]; [4]) [µg/mL]	MIC (A. niger ATCC 16404) [µg/mL]	MIC (C. albicans ATCC 14053 [2]; [5]) [µg/mL]	Compound	MIC C. neoformans ATCC 66031, SDB (C. neoformans ATCC 66031)	MIC C. albicans ATCC 14053, SDB (C. albicans ATCC 14053 [1]; SDB medium pH 5.6, 35-37° C.)	MIC A. niger ATCC 16404, SDB (A. niger ATCC 16404)	MIC C. albicans ATCC 14053, RPMI (C. albicans ATCC 14053 [2]; [3])	MIC (C. albicans ATCC 14053 [1]; ATCC14053, SDB medium pH 5.6, 35-37° C.) [µg/mL]	MIC (C. albicans ATCC 14053 [2]; ATCC14053, pH 6.9, read-out: MIC C. albicans ATCC 14053, RPMI) [µg/mL]
–	–	–	–	CCCCCCCCCCCCCC(=O)OC(Cn1cncn1)(Cn1cncn1)c1ccc(F)cc1F [Compound 1b, O-Tetradecanoylfluconazole]	718 µg/mL (≈ 1390 µM)	718 µg/mL (≈ 1390 µM)	≧718 μg/mL	718 µg/mL (≈ 1390 µM)	–	–
–	–	–	–	CCCCCCCCCCCCC(Br)C(=O)OC(Cn1cncn1)(Cn1cncn1)c1ccc(F)cc1F (centres unmarked) [Compound 1i, O-2-Bromomyristoylfluconazole]	731 µg/mL (≈ 1230 µM)	731 µg/mL (≈ 1230 µM)	>731 µg/mL	731 µg/mL (≈ 1230 µM)	–	–
47 (≈ 113 µM)	> 749	749 (≈ 1800 µM)	749 (≈ 1800 µM)	Fc1ccc(C(I)(Cn2cncn2)Cn2cncn2)c(F)c1 [I]	–	–	–	–	–	–
28 (≈ 86.2 µM)	> 883	883 (≈ 2720 µM)	1140 (≈ 3500 µM)	Fc1ccc(C(Cl)(Cn2cncn2)Cn2cncn2)c(F)c1 [Cl]	–	–	–	–	–	–
40 (≈ 109 µM)	1290 (≈ 3500 µM)	1290 (≈ 3500 µM)	645 (≈ 1750 µM)	CS(=O)(=O)C(Cn1cncn1)(Cn1cncn1)c1ccc(F)cc1F [Mesyl]	–	–	–	–	–	–
14 (≈ 65.3 µM)	1720 (≈ 8020 µM)	27 (≈ 126 µM)	–	CCCCCCCCCCCCCCO [Tetradecanol, reference compound]	–	–	–	–	–	–
46 (≈ 103 µM)	> 731	> 731	365 (≈ 821 µM)	Cc1ccc(S(=O)(=O)C(Cn2cncn2)(Cn2cncn2)c2ccc(F)cc2F)cc1 [Tosyl]	–	–	–	–	–	–
–	–	–	–	CC(=O)OC(Cn1cncn1)(Cn1cncn1)c1ccc(F)cc1F [Compound 1a, O-Acetylfluconazole]	>1,420 μg/mL	1,420 μg/mL	≧1,420 μg/mL	>1,420 μg/mL	–	–
–	–	–	–	O=C(OCCCl)OC(Cn1cncn1)(Cn1cncn1)c1ccc(F)cc1F [Compound 1k, O-2-Chloroethyloxycarbonylfluconazole]	>977 µg/mL	>977 µg/mL	>977 µg/mL	977 µg/mL (≈ 2370 µM)	–	–
12 (≈ 47.8 µM)	95 (≈ 378 µM)	24 (≈ 95.5 µM)	–	OCCCCCCCCCCCBr [11-Bromoundecanol, reference compound]	–	–	–	–	–	–
> 529	1750 (≈ 7660 µM)	> 529	> 876	CCCCCCCCCCCCCC(=O)O [Tetradecanoic acid, reference compound]	>529 µg/mL	–	–	–	–	–
–	–	–	–	CC(=O)OC[C@H]1O[C@@H](OP(=O)(OCCC#N)OC(Cn2cncn2)(Cn2cncn2)c2ccc(F)cc2F)[C@H](OC(C)=O)[C@@H](OC(C)=O)[C@@H]1OC(C)=O (stereo partly drawn) [Compound 4a, 2-Cyanoethyl-[1-(β-D-2,3,4,6-glucosyltetraacetate)]fluconazole phosphate]	551 µg/mL	1,999 μg/mL	1,999 μg/mL	–	–	–
–	–	–	–	CC(=O)N[C@H]1[C@H](OP(=O)(OCCC#N)OC(Cn2cncn2)(Cn2cncn2)c2ccc(F)cc2F)O[C@H](COC(C)=O)[C@@H](OC(C)=O)[C@@H]1OC(C)=O (stereo partly drawn) [Compound 4b, 2-Cyanoethyl-[1-(2-acetamido-2-deoxy-3,4,6-tri-O-acetyl-β-D-glucopyranosidyl)]fluconazole phosphate]	306 µg/mL	>3,399 μg/mL	1,699 μg/mL	–	–	–
19 (≈ 68 µM)	155 (≈ 555 µM)	78 (≈ 279 µM)	155 (≈ 555 µM)	CCCCCCCCCCC(Br)C(=O)O (centres unmarked) [2-Bromolauric acid, reference compound]	–	–	–	–	–	–
–	–	–	–	CCCC(Br)C(=O)OC(Cn1cncn1)(Cn1cncn1)c1ccc(F)cc1F (centres unmarked) [Compound 1e, O-2-Bromovaleroylfluconazole]	1,100 μg/mL	552 µg/mL (≈ 1180 µM)	≧1,100 μg/mL	275 µg/mL (≈ 586 µM)	–	–
≥ 220	≥ 220	≥ 220	≥ 220	CC(=O)O [Acetic acid, reference compound]	–	–	–	–	–	–

Compound	MIC (C. neoformans ATCC 66031) [µg/mL]	MIC (C. albicans ATCC 14053 [1]; [4]) [µg/mL]	MIC (A. niger ATCC 16404) [µg/mL]	MIC (C. albicans ATCC 14053 [2]; [5]) [µg/mL]	MIC C. neoformans ATCC 66031, SDB (C. neoformans ATCC 66031)	MIC C. albicans ATCC 14053, SDB (C. albicans ATCC 14053 [1]; SDB medium pH 5.6, 35-37° C.)	MIC A. niger ATCC 16404, SDB (A. niger ATCC 16404)	MIC C. albicans ATCC 14053, RPMI (C. albicans ATCC 14053 [2]; [3])	MIC (C. albicans ATCC 14053 [1]; ATCC14053, SDB medium pH 5.6, 35-37° C.) [µg/mL]	MIC (C. albicans ATCC 14053 [2]; ATCC14053, pH 6.9, read-out: MIC C. albicans ATCC 14053, RPMI) [µg/mL]
CCCCC(Br)C(=O)O (centres unmarked) [2-Bromohexanoic acid, reference compound]	355 (≈ 1820 µM)	–	710 (≈ 3640 µM)	–	–	–	–	–	710 (≈ 3640 µM)	≥ 710

From patent US7351731B2, “Azole derivatives and methods for making the same” (Board of Governors for Higher Education, State of Rhode …, priority 2005, dated 2008)
